# Results published in patent US20130022612A1, “METHODS AND COMPOSITIONS FOR MALARIA PROPHYLAXIS” (priority 2004, published 2013).
# Tests used:
# [1] = system: CSP processing in P. falciparum sporozoites; test: Pulse-chase metabolic labeling of CSP processing, P. falciparum sporozoites; assay type: cell-based, Plasmodium falciparum; details: ninety minute chase
# Protocol: P. berghei sporozoites were incubated in Dulbecco's Modified Eagle Medium (DMEM; Invitrogen, Carlsbad, Calif.) without cysteine (Cys) and methionine (Met), containing 1% BSA and […] L-[35 S]-Cys/Met (Pro-Mix, Amersham Pharmacia) in a total volume of 200 μl for one hour at 28° C. They were then washed and resuspended in DMEM/BSA containing unlabeled Cys/Met at 28° C. for the indicated time in the presence or absence of the indicated protease inhibitor. Sporozoites were then lysed and CSP was immunoprecipitated and analyzed by autoradiography as outlined below.
# For experiments with P. falciparum, a 10% SDS-polyacrylamide gel was used. Gels were fixed in 25% methanol/12% acetic acid, enhanced with Amplify (Amersham Pharmacia) for 30 minutes, dried, and exposed to film.
# P. berghei sporozoites were metabolically labeled in DMEM without Cys/Met, 1% BSA and 400 μCi/ml L-[^355]-Cys/Met for 1 hour at 28° C. and then kept on ice or chased at 28° C. for the indicated times. Details of this procedure are outlined in (Coppi et al., 2005). To investigate the kinetics of processing in the presence of hepatocytes, sporozoites were labeled as above, chased at 28° C. for 1 hour and then centrifuged (300×g) onto glass coverslips with Hepa 1-6 cells and incubated at 37° C. for 5, 15 or 30 minutes. […]
# [2] = system: P. falciparum sporozoites; test: Sporozoite invasion assay, P. falciparum on HepG2 cells; assay type: cell-based, Plasmodium falciparum; details: sporozoites preincubated with E-64, HepG2 cells
# Protocol: %invasion=total sporozites−extracellular sporozites×100/total sporozites
# Hepa 1-6 cells were seeded in Permanox eight-chambered Lab-Tek wells (2.5×10^5/well) and allowed to grow overnight. On the day of the experiment, 5×10^5 P. berghei wild type, RCon or ΔRI sporozoites were added per well. Sporozoites pre-incubated with 10 μM E-64d for 15 minutes at 25° C. were used as controls. For experiments testing the effect of anti-repeat region antibodies on invasion, HepG2 cells were used and P. berghei or P. falciparum sporozoites were added to the cells in the presence of the indicated antibody. After 1 hour at 37° C., cells were washed, fixed, and sporozoites were stained with a double staining assay that distinguishes intracellular from extracellular sporozoites (Renia et al., 1988). To quantify EEF development, cells with sporozoites were grown for an additional 2 days after which they were fixed with methanol, stained with mAb 2E6 followed by goat anti-mouse Ig conjugated to FITC. In all assays, at least 50 fields per well were counted and each point was performed in triplicate.
# [3] = system: CSP cleavage in P. berghei sporozoites; test: Cell contact assay (CSP cleavage on contact with hepatocytes); assay type: cell-based, Plasmodium berghei; details: experiment 1, no cells, visualized with α-N
# Protocol: Hepa 1-6 cells were seeded on glass coverslips at a density of 2×10^5 cells per coverslip and grown until confluent. P. berghei sporozoites were incubated in DMEM±10 mM E-64 at 4° C. for two hours. Thirty minutes before sporozoites were added to coverslips, Cytochalasin D (CD) was added to all samples (final concentration, […]). Sporozoites were centrifuged onto coverslips (1250×g) for five minutes at 4° C. Coverslips were then brought to 37° C. for two minutes, fixed with 4% paraformaldehyde and stained with either mAb 3D11 followed by anti-mouse Ig FITC or the N-terminal antiserum (1:100) followed by anti-rabbit Ig FITC. […] As a control, sporozoites were spun onto coverslips without cells using the protocol outlined above.
# P. berghei sporozoites = details: in the presence of E-64
# Protocol: Hepa 1-6 cells were plated in 96-well tissue culture-treated plates, allowed to grow until semi-confluent, washed with DMEM without phenol red, loaded with 10 μM calcein green AM for 1 hour at 37° C. and washed 3 times. 5×10^5 sporozoites in culture medium were centrifuged onto the calcein-loaded cells, incubated for 1 hour at 37° C. and supernatants containing the released calcein were transferred to a ThermoElectron Microfluor 96-well plate. Fluorescence was read in a Labsystems Fluoroscan II using excitation and emission wavelengths of 485 nm and 538 nm, respectively. Further details are outlined in (Coppi et al., 2007).
smiles,measurement,setting,value
"CC(C)C[C@H](NC(=O)[C@H]1O[C@@H]1C(=O)O)C(=O)NCCCCN=C(N)N (relative stereo) [E-64, L-trans-epoxysuccinyl-leucylamide-[4-guanido]-butane]",effect on CSP processing,[1],inhibited CSP processing
same,effect on invasion by P. falciparum sporozoites,[2],significantly inhibited
same,percentage staining with the N-terminal antiserum,[3],90% ± 4.1
same,increase in migratory activity,P. berghei sporozoites,4 to 5 fold
